System: 653999-131-R-J2-PDC complex spheroid viability
Assay: Anticancer human tumor 653999-131-R-J2-PDC patient-derived lung adenocarcinoma cell line growth inhibition
Conditions: for IC50: curve of first compound; for viability, T/C: stronger effect = lower value
Outline: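 Complex spheroids of tumor cells with HUVEC and human MSCs, exposed to iadademstat combined with other agents. Each agent tested in half-log steps from near clinical Cmax (else 10 microM top), DMSO ≤0.25%.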

[1] = second compound 0.1 µM, first compound 0.0316 µM
[2] = second compound 0.1 µM, first compound 0.1 µM
[3] = second compound 0.1 µM, first compound 0.316 µM
[4] = second compound 0.1 µM, first compound 1 µM
[5] = second compound 0.1 µM, first compound 3.16 µM
[6] = second compound 0.1 µM, first compound 10 µM
[7] = second compound 0.316 µM, first compound 0.0316 µM
[8] = second compound 0.316 µM, first compound 0.1 µM
[9] = second compound 0.316 µM, first compound 0.316 µM
[10] = second compound 0.316 µM, first compound 1 µM
[11] = second compound 0.316 µM, first compound 3.16 µM
[12] = second compound 0.316 µM, first compound 10 µM
[13] = second compound 1 µM, first compound 0.0316 µM
[14] = second compound 1 µM, first compound 0.1 µM
[15] = second compound 1 µM, first compound 0.316 µM
[16] = second compound 1 µM, first compound 1 µM
[17] = second compound 1 µM, first compound 3.16 µM
[18] = second compound 1 µM, first compound 10 µM
[19] = second compound 3.16 µM, first compound 0.0316 µM
[20] = second compound 3.16 µM, first compound 0.1 µM
[21] = second compound 3.16 µM, first compound 0.316 µM
[22] = second compound 3.16 µM, first compound 1 µM
[23] = second compound 3.16 µM, first compound 3.16 µM
[24] = second compound 3.16 µM, first compound 10 µM
[25] = second compound 10 µM, first compound 0.0316 µM
[26] = second compound 10 µM, first compound 0.1 µM
[27] = second compound 10 µM, first compound 0.316 µM
[28] = second compound 10 µM, first compound 1 µM
[29] = second compound 10 µM, first compound 3.16 µM
[30] = second compound 10 µM, first compound 10 µM
[31] = second compound 0.1 µM, first compound 0.00949 µM
[32] = second compound 0.1 µM, first compound 0.03 µM
[33] = second compound 0.1 µM, first compound 0.0949 µM
[34] = second compound 0.1 µM, first compound 0.3 µM
[35] = second compound 0.316 µM, first compound 0.00949 µM
[36] = second compound 0.316 µM, first compound 0.03 µM
[37] = second compound 0.316 µM, first compound 0.0949 µM
[38] = second compound 0.316 µM, first compound 0.3 µM
[39] = second compound 1 µM, first compound 0.00949 µM
[40] = second compound 1 µM, first compound 0.03 µM
[41] = second compound 1 µM, first compound 0.0949 µM
[42] = second compound 1 µM, first compound 0.3 µM
[43] = second compound 3.16 µM, first compound 0.00949 µM
[44] = second compound 3.16 µM, first compound 0.03 µM
[45] = second compound 3.16 µM, first compound 0.0949 µM
[46] = second compound 3.16 µM, first compound 0.3 µM
[47] = second compound 10 µM, first compound 0.00949 µM
[48] = second compound 10 µM, first compound 0.03 µM
[49] = second compound 10 µM, first compound 0.0949 µM
[50] = second compound 10 µM, first compound 0.3 µM
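Note: spheroids exposed to agents for seven days before readout.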

CC1(C)CCC(CN2CCN(c3ccc(C(=O)NS(=O)(=O)c4ccc(NCC5CCOCC5)c([N+](=O)[O-])c4)c(Oc4cnc5[nH]ccc5c4)c3)CC2)=C(c2ccc(Cl)cc2)C1 + NC1CC1c1ccc(-c2cccc(O)c2)cc1
IC50 (second compound 0.1 µM): 5.74 µM | IC50 (second compound 0.316 µM): 4.87 µM | IC50 (second compound 1 µM): 5.19 µM | IC50 (second compound 3.16 µM): 5.26 µM | IC50 (second compound 10 µM): 4.53 µM | viability, T/C [1]: 117% | viability, T/C [2]: 118% | viability, T/C [3]: 107% | viability, T/C [4]: 102% | viability, T/C [5]: 81.5% | viability, T/C [6]: 21.6% | viability, T/C [7]: 103% | viability, T/C [8]: 112% | viability, T/C [9]: 101% | viability, T/C [10]: 99.3% | viability, T/C [11]: 65.7% | viability, T/C [12]: 23.6% | viability, T/C [13]: 103% | viability, T/C [14]: 101% | viability, T/C [15]: 107% | viability, T/C [16]: 107% | viability, T/C [17]: 72.6% | viability, T/C [18]: 20.2% | viability, T/C [19]: 89.9% | viability, T/C [20]: 84.2% | viability, T/C [21]: 105% | viability, T/C [22]: 86.8% | viability, T/C [23]: 76.5% | viability, T/C [24]: 16.8% | viability, T/C [25]: 85.3% | viability, T/C [26]: 102% | viability, T/C [27]: 89.4% | viability, T/C [28]: 95.8% | viability, T/C [29]: 68.8% | viability, T/C [30]: 8.78%

CC1COCCN1c1cc(C2(S(C)(=N)=O)CC2)nc(-c2ccnc3[nH]ccc23)n1 (stereo not given) + NC1CC1c1ccc(-c2cccc(O)c2)cc1
IC50 (second compound 0.1 µM): > 10 µM | IC50 (second compound 0.316 µM): 2.11 µM | IC50 (second compound 1 µM): 1.58 µM | IC50 (second compound 3.16 µM): 2.65 µM | IC50 (second compound 10 µM): 2.26 µM | viability, T/C [1]: 99.7% | viability, T/C [2]: 100% | viability, T/C [3]: 102% | viability, T/C [4]: 77.7% | viability, T/C [5]: 47.9% | viability, T/C [6]: 51.7% | viability, T/C [7]: 104% | viability, T/C [8]: 95.3% | viability, T/C [9]: 92.5% | viability, T/C [10]: 62.7% | viability, T/C [11]: 42.5% | viability, T/C [12]: 40.2% | viability, T/C [13]: 83.1% | viability, T/C [14]: 98.6% | viability, T/C [15]: 83.7% | viability, T/C [16]: 57.2% | viability, T/C [17]: 39.8% | viability, T/C [18]: 36.7% | viability, T/C [19]: 90.2% | viability, T/C [20]: 108% | viability, T/C [21]: 94.5% | viability, T/C [22]: 73.2% | viability, T/C [23]: 43.9% | viability, T/C [24]: 47.1% | viability, T/C [25]: 77.2% | viability, T/C [26]: 93% | viability, T/C [27]: 82.3% | viability, T/C [28]: 64% | viability, T/C [29]: 41.1% | viability, T/C [30]: 47.3%

CCN(c1cc(-c2ccc(CN3CCOCC3)cc2)cc(C(=O)NCc2c(C)cc(C)[nH]c2=O)c1C)C1CCOCC1 + NC1CC1c1ccc(-c2cccc(O)c2)cc1
IC50 (second compound 0.1 µM): > 3 µM | IC50 (second compound 0.316 µM): > 3 µM | IC50 (second compound 1 µM): > 3 µM | IC50 (second compound 3.16 µM): > 3 µM | IC50 (second compound 10 µM): > 3 µM | viability, T/C [31]: 92.9% | viability, T/C [32]: 104% | viability, T/C [33]: 97.8% | viability, T/C [34]: 87.4% | viability, T/C (second compound 0.1 µM, first compound 0.949 µM): 94.1% | viability, T/C (second compound 0.1 µM, first compound 3 µM): 69.5% | viability, T/C [35]: 102% | viability, T/C [36]: 107% | viability, T/C [37]: 97.8% | viability, T/C [38]: 80.1% | viability, T/C (second compound 0.316 µM, first compound 0.949 µM): 79.3% | viability, T/C (second compound 0.316 µM, first compound 3 µM): 69.7% | viability, T/C [39]: 96.1% | viability, T/C [40]: 97.5% | viability, T/C [41]: 89.4% | viability, T/C [42]: 95.4% | viability, T/C (second compound 1 µM, first compound 0.949 µM): 93.6% | viability, T/C (second compound 1 µM, first compound 3 µM): 71.8% | viability, T/C [43]: 108% | viability, T/C [44]: 108% | viability, T/C [45]: 109% | viability, T/C [46]: 93.8% | viability, T/C (second compound 3.16 µM, first compound 0.949 µM): 89.3% | viability, T/C (second compound 3.16 µM, first compound 3 µM): 76.2% | viability, T/C [47]: 101% | viability, T/C [48]: 113% | viability, T/C [49]: 97% | viability, T/C [50]: 93% | viability, T/C (second compound 10 µM, first compound 0.949 µM): 90.4% | viability, T/C (second compound 10 µM, first compound 3 µM): 86.7%

Nc1ncn(C2CC(O)C(CO)S2)c(=O)n1 (stereo not given) + NC1CC1c1ccc(-c2cccc(O)c2)cc1
IC50 (second compound 0.1 µM): > 0.3 µM | IC50 (second compound 0.316 µM): > 0.3 µM | IC50 (second compound 1 µM): > 0.3 µM | IC50 (second compound 3.16 µM): > 0.3 µM | IC50 (second compound 10 µM): > 0.3 µM | viability, T/C (second compound 0.1 µM, first compound 0.000949 µM): 100% | viability, T/C (second compound 0.1 µM, first compound 0.003 µM): 90.5% | viability, T/C [31]: 104% | viability, T/C [32]: 91% | viability, T/C [33]: 78.1% | viability, T/C [34]: 64.8% | viability, T/C (second compound 0.316 µM, first compound 0.000949 µM): 94.9% | viability, T/C (second compound 0.316 µM, first compound 0.003 µM): 100% | viability, T/C [35]: 77.4% | viability, T/C [36]: 84.8% | viability, T/C [37]: 87% | viability, T/C [38]: 67.6% | viability, T/C (second compound 1 µM, first compound 0.000949 µM): 81.8% | viability, T/C (second compound 1 µM, first compound 0.003 µM): 101% | viability, T/C [39]: 102% | viability, T/C [40]: 88.8% | viability, T/C [41]: 80.4% | viability, T/C [42]: 67.5% | viability, T/C (second compound 3.16 µM, first compound 0.000949 µM): 102% | viability, T/C (second compound 3.16 µM, first compound 0.003 µM): 94.2% | viability, T/C [43]: 98.2% | viability, T/C [44]: 85.1% | viability, T/C [45]: 93.8% | viability, T/C [46]: 77% | viability, T/C (second compound 10 µM, first compound 0.000949 µM): 94.3% | viability, T/C (second compound 10 µM, first compound 0.003 µM): 92.9% | viability, T/C [47]: 102% | viability, T/C [48]: 79.6% | viability, T/C [49]: 90.3% | viability, T/C [50]: 74.8%

Source: PubChem BioAssay AID1918939 (Molecular Pharmacology Branch, DTP, NCI, 2023)
